Source: patent US6340696B1, “Viral treatment” (The Procter & Gamble Company, priority 1999, dated 2002)
Like-named read-outs stand apart in the source and are kept apart here. Marks after values point to notes of the source that are not given here.

Columns and labels:
[1] = tested on: Madin-Darby bovine kidney (MDBK) cells; assay: Cytotoxicity in MDBK cells (drug toxicity control wells, XTT)
Protocol: (§1) Madin-Darby bovine kidney (MDBK) cells were passaged in T-75 flasks for use in the assay. On the day preceding the assay, the cells were trypsinized, pelleted, counted and resuspended at 6×10^4/well in tissue culture medium. Cells were added to 96 well flat bottom plates in a volume of 100 μl per well.
(§2) Interferon was purchased from PBL Biomedical Laboratories (New Brunswick, N.J.) and was in PBS solutions. On the day of testing, the drug stock is diluted in the medium to the desired high concentration and then further diluted in the medium in half log series.
(§3) The day following plating of cells, plates are removed from the incubator, and medium is removed and discarded. Drug dilutions are added to appropriate wells of the microtiter plate in a volume of 100 μl per well. Each dilution is set up in triplicate. Complete medium or complete medium containing appropriately diluted virus is added to appropriate wells in a volume of 100 μl per well.
(§4) The format of the test plate has been standardized. Each plate contains cell control wells (cell only), virus control wells (cells plus virus), drug toxicity control wells (cells plus drug only), drug colorimetric control wells (drug only) as well as experimental wells (drugs plus cells plus virus).
(§5) The cell viability was evaluated by a dye (XTT) uptake procedure. XTT-tetraolium is metabolized by the mitochontrial enzymes of metabolically active cells to a soluble formazan product, allowing the rapid quantitative analysis of the inhibition of virus-induced cell killing by antiviral test substances.
(§6) XTT solution was prepared daily as a stock of 1 mg/ml in PBS. Phenazine methosulfate (PMS) solution was prepared at 15 mg/ml in PVBS and stored in the dark at −20° C. STT/PMS stock was prepared immediately before use by diluting PMS 1:100 into PBS and adding 40 μl per ml of XTT solution. Fifty microliters of XTT/PMS was added to each well of the plate (each well had been loaded with 100 μl fresh medium) and the plate was reincubated for 4 hours at 37° C.
(§7) Adhesive plate sealers were used in place of the lids, the sealed plate was inverted several times to mix the soluble formazan product and the plate was read spectrophotometrically at 450 nm (XTT) with a Molecular Devices Vmax plate reader.
(§8) The efficacy and toxicity of inteferons are analyzed using a computer program (developed by Southern Research Institute) which calculates % CPE reduction, % cell viability, IC25,50 & 95, TC5,50 & 95 and other indices.
(§9) Combination effects are analyzed statistically by Prichard and Shipman method. Effects of the drug combination on efficacy and toxicity are calculated based on the activity or toxicity of the two compounds when tested alone. The expected additive inhibition rate of virus production or the expected additive cell viability rate subtracted from the experimentally determined inhibition rate or viability rate at each combination concentration results in a positive value (synergy), a negative value (antagonism), or zero (addivity).

BVDV = BVDV antiviral assay in MDBK cells, XTT readout of inhibition of virus-induced cell killing; assay type: cell-based; details: for TI: TC50/IC50; for Comments: activity against BVDV / toxicity
Protocol: as §1
A pretitered aliquot of virus is removed from the freezer (−80° C.) and allowed to thaw slowly to room temperature in a biological safety cabinet. The virus is diluted into tissue culture medium such that the amount of virus added to each well in a volume of 100 μl will be the amount determined to give complete cell killing at 6 days post-infection.
as §2, §3, §4, §5, §6, §7, §8, §9

[2] = Compound conc 0.020, INF-αA conc 0
[3] = Compound conc 0.020, Ribavirin conc 0
[4] = Compound conc 0.063, INF-αA conc 0
[5] = Compound conc 0.063, Ribavirin conc 0
[6] = Compound conc 0.200, INF-αA conc 0
[7] = Compound conc 0.200, Ribavirin conc 0
[8] = Compound conc 0.633, INF-αA conc 0
[9] = Compound conc 0.633, Ribavirin conc 0
[10] = Compound conc 2.00, INF-αA conc 0
[11] = Compound conc 2.00, Ribavirin conc 0

With INF-α I: human IFN-α species I the TC50 [1] was greater than 316.00 U/ml, the IC50 (BVDV; BVDV in MDBK cells) was 26.80 U/ml and the TI (BVDV) was greater than 11.81. The Comments (BVDV) was “Active/Nontoxic”.

With `NC(=O)c1ncn([C@@H]2O[C@H](CO)[C@@H](O)[C@H]2O)n1` [Ribavirin, 1-β-D-ribofuranosyl-1H-1,2,4-triazole-3carboxamide, reference compound] the TC50 ([1]; MDBK cells, unit per footnote) was 7.19* μg/ml, the IC50 (BVDV; Bovine viral diarrhea virus isolates and strains, MDBK) was 0.66 µg/mL and the “Antiviral Percentage Inhibition” value (BVDV; Compound conc 0, Ribavirin conc 0.075) was 0%. For the same molecule, the “Antiviral Percentage Inhibition” value (BVDV; Compound conc 0, Ribavirin conc 0.238) was 5.2%, the “Antiviral Percentage Inhibition” value (BVDV; Compound conc 0, Ribavirin conc 0.751) was 5% and the “Antiviral Percentage Inhibition” value (BVDV; Compound conc 0, Ribavirin conc 2.373) was 7.9%. For the same molecule, the “Antiviral Percentage Inhibition” value (BVDV; Compound conc 0, Ribavirin conc 7.5) was 43.7%, the “Antiviral Percentage Inhibition” value (BVDV; Ribavirin conc 0.075, INF-αA conc 0) was 0% and the “Antiviral Percentage Inhibition” value (BVDV; Ribavirin conc 0.238, INF-αA conc 0) was 5%. For the same molecule, the “Antiviral Percentage Inhibition” value (BVDV; Ribavirin conc 0.751, INF-αA conc 0) was 3%, the “Antiviral Percentage Inhibition” value (BVDV; Ribavirin conc 2.373, INF-αA conc 0) was 31.5% and the “Antiviral Percentage Inhibition” value (BVDV; Ribavirin conc 7.500, INF-αA conc 0) was 41.6%. For the same molecule, the Comments (BVDV) was “Active/Toxic”.

In the case of “(5-Phenyl-1,2,4-thiadiazol)-3-yl thiourea [Compound]”, the “Cytotoxicity Percentage” value [1, 2] is reported as 0%, the “Cytotoxicity Percentage” value [1, 3] is reported as 16.3% and the “Cytotoxicity Percentage” value [1, 4] is reported as 5.8%. The “Cytotoxicity Percentage” value [1, 5] was 6.7%, the “Cytotoxicity Percentage” value [1, 6] was 8.3% and the “Cytotoxicity Percentage” value [1, 7] was 6.2%. The “Cytotoxicity Percentage” value [1, 8] was 13.5%, the “Cytotoxicity Percentage” value [1, 9] was 16.9% and the “Cytotoxicity Percentage” value [1, 10] was 10.3%. The “Cytotoxicity Percentage” value [1, 11] was 18.8%, the “combination effect on toxicity of ribavirin towards the cells” value ([1]; in vitro) was “imposes antagonistic effect on toxicity of ribavirin” and the “Antiviral Percentage Inhibition” value (BVDV; [2]) was 5.8%. The “Antiviral Percentage Inhibition” value (BVDV; [3]) was 7.3%, the “Antiviral Percentage Inhibition” value (BVDV; [4]) was 7% and the “Antiviral Percentage Inhibition” value (BVDV; [5]) was 5%. For the same molecule, the “Antiviral Percentage Inhibition” value (BVDV; [6]) was 4%, the “Antiviral Percentage Inhibition” value (BVDV; [7]) was 3.6% and the “Antiviral Percentage Inhibition” value (BVDV; [8]) was 11.7%. For the same molecule, the “Antiviral Percentage Inhibition” value (BVDV; [9]) was 7.6%, the “Antiviral Percentage Inhibition” value (BVDV; [10]) was 25.9% and the “Antiviral Percentage Inhibition” value (BVDV; [11]) was 29.5%. The “combination effect on activity against BVDV in vitro (words)” value (BVDV; listed as (5-Phenyl -1,2,4-thiadiazol)-3-yl thiourea) was “acts synergistically with INF-αA” and the “combination effect on activity against BVDV in vitro (words)” value (BVDV; listed as (5-Phenyl-1,2,4-thiadiazol)-3-yl thiourea) was “does not have antagonistic effect on activity of ribavirin”.

B1: INF-α J1: human IFN-α species J1 (protein, UniProt P01567 24-189, looked up)
Interferon alpha-7: CDLPQTHSLRNRRALILLAQMGRISPFSCLKDRHEFRFPEEEFDGHQFQKTQAISVLHEMIQQTFNLFSTEDSSAAWEQSLLEKFSTELYQQLNDLEACVIQEVGVEETPLMNEDFILAVRKYFQRITLYLMEKKYSPCAWEVVRAEIMRSFSFSTNLKKGLRRKD
For B1, the TC50 [1] was greater than 316.00 U/ml, the IC50 (BVDV; BVDV in MDBK cells) was 10.60 U/ml and the TI (BVDV) was greater than 29.90. The Comments (BVDV) was “Active/Nontoxic”.

B2: INF-α C: human IFN-α species C (protein, UniProt P01566 24-189, looked up)
Interferon alpha-10: CDLPQTHSLGNRRALILLGQMGRISPFSCLKDRHDFRIPQEEFDGNQFQKAQAISVLHEMIQQTFNLFSTEDSSAAWEQSLLEKFSTELYQQLNDLEACVIQEVGVEETPLMNEDSILAVRKYFQRITLYLIERKYSPCAWEVVRAEIMRSLSFSTNLQKRLRRKD
B2 was tested, and the TC50 [1] was greater than 316.00 U/ml, the IC50 (BVDV; BVDV in MDBK cells) was 9.12 U/ml and the TI (BVDV) was greater than 34.66. The Comments (BVDV) was “Active/Nontoxic”.

B3: INF-α H2: human IFN-α species H2 (protein, UniProt P01570 24-189, looked up)
Interferon alpha-14: CNLSQTHSLNNRRTLMLMAQMRRISPFSCLKDRHDFEFPQEEFDGNQFQKAQAISVLHEMMQQTFNLFSTKNSSAAWDETLLEKFYIELFQQMNDLEACVIQEVGVEETPLMNEDSILAVKKYFQRITLYLMEKKYSPCAWEVVRAEIMRSLSFSTNLQKRLRRKD
B3 showed a TC50 [1] greater than 316.00 U/ml, an IC50 (BVDV; BVDV in MDBK cells) of 7.00 U/ml and a TI (BVDV) greater than 45.12. The Comments (BVDV) was “Active/Nontoxic”.

B4: INF-α F: human IFN-α species F (protein, UniProt P01568 24-189, looked up)
Interferon alpha-21: CDLPQTHSLGNRRALILLAQMGRISPFSCLKDRHDFGFPQEEFDGNQFQKAQAISVLHEMIQQTFNLFSTKDSSATWEQSLLEKFSTELNQQLNDLEACVIQEVGVEETPLMNVDSILAVKKYFQRITLYLTEKKYSPCAWEVVRAEIMRSFSLSKIFQERLRRKE
B4 gave a TC50 [1] greater than 316.00 U/ml, an IC50 (BVDV; BVDV in MDBK cells) of 33.00 U/ml and a TI (BVDV) greater than 9.57. The Comments (BVDV) was “Active/Nontoxic”.

B5: INF-α K: human IFN-α species K (protein, UniProt P05013 21-189, looked up)
Interferon alpha-6: SLDCDLPQTHSLGHRRTMMLLAQMRRISLFSCLKDRHDFRFPQEEFDGNQFQKAEAISVLHEVIQQTFNLFSTKDSSVAWDERLLDKLYTELYQQLNDLEACVMQEVWVGGTPLMNEDSILAVRKYFQRITLYLTEKKYSPCAWEVVRAEIMRSFSSSRNLQERLRRKE
With B5 the TC50 [1] was greater than 316.00 U/ml, the IC50 (BVDV; BVDV in MDBK cells) was 24.80 U/ml and the TI (BVDV) was greater than 12.72. The Comments (BVDV) was “Active/Nontoxic”.

B6: INF-α WA: human IFN-α species WA (protein, UniProt P05015 24-189, looked up)
Interferon alpha-16: CDLPQTHSLGNRRALILLAQMGRISHFSCLKDRYDFGFPQEVFDGNQFQKAQAISAFHEMIQQTFNLFSTKDSSAAWDETLLDKFYIELFQQLNDLEACVTQEVGVEEIALMNEDSILAVRKYFQRITLYLMGKKYSPCAWEVVRAEIMRSFSFSTNLQKGLRRKD
In the case of B6, the TC50 [1] is reported as greater than 316.00 U/ml, the IC50 (BVDV; BVDV in MDBK cells) is reported as 6.75 U/ml and the TI (BVDV) is reported as greater than 46.78. For the same molecule, the Comments (BVDV) was “Active/Nontoxic”.

B7: INF-α D: human IFN-α species D (protein, UniProt P01562 24-189, looked up)
Interferon alpha-1/13: CDLPETHSLDNRRTLMLLAQMSRISPSSCLMDRHDFGFPQEEFDGNQFQKAPAISVLHELIQQIFNLFTTKDSSAAWDEDLLDKFCTELYQQLNDLEACVMQEERVGETPLMNADSILAVKKYFRRITLYLTEKKYSPCAWEVVRAEIMRSLSLSTNLQERLRRKE
Work on B7 yielded a TC50 [1] greater than 316.00 U/ml, an IC50 (BVDV; BVDV in MDBK cells) of 11.60 U/ml and a TI (BVDV) greater than 27.31. The Comments (BVDV) was “Active/Nontoxic”.

B8: INF-α G: human IFN-α species G (protein, UniProt P01569 22-189, looked up)
Interferon alpha-5: LGCDLPQTHSLSNRRTLMIMAQMGRISPFSCLKDRHDFGFPQEEFDGNQFQKAQAISVLHEMIQQTFNLFSTKDSSATWDETLLDKFYTELYQQLNDLEACMMQEVGVEDTPLMNVDSILTVRKYFQRITLYLTEKKYSPCAWEVVRAEIMRSFSLSANLQERLRRKE
In the case of B8, the TC50 [1] is reported as greater than 316.00 U/ml, the IC50 (BVDV; BVDV in MDBK cells) is reported as 23.60 U/ml and the TI (BVDV) is reported as greater than 13.40. The Comments (BVDV) was “Active/Nontoxic”.
